The values that follow are results of earlier work, collected in patent US20050148593A1, “Compounds, compositions, and methods” (priority 2003, published 2005).

As a reminder, the GI50 is the concentration at which growth is held to half of that of the control.

The data set deals with A549 cells. The settings on record: data provided by National Cancer Institute, Developmental Therapeutic Program.
With `O=c1[nH]cc(F)c(=O)[nH]1` [5-fluorouracil], the GI50 was 1000 nM.

Consider `COc1cccc2c1C(=O)c1c(O)c3c(c(O)c1C2=O)C[C@@](O)(C(=O)CO)C[C@@H]3O[C@H]1C[C@H](N)[C@H](O)[C@H](C)O1` [doxorubicin], for which the GI50 is 63 nM.

Consider `NC(=O)NO` [hydroxyurea], for which the GI50 was 500000 nM.

With `CC(=O)O[C@H]1C(=O)[C@@]2(C)[C@H]([C@H](OC(=O)c3ccccc3)[C@]3(O)C[C@H](OC(=O)[C@H](O)[C@@H](NC(=O)c4ccccc4)c4ccccc4)C(C)=C1C3(C)C)[C@]1(OC(C)=O)CO[C@@H]1C[C@@H]2O` [paclitaxel], the GI50 was 4 nM.
